{"source": "paper PMC6013238", "about": "“Development of novel NEMO-binding domain mimetics for inhibiting IKK/NF-κB activation” (PLoS Biology, 2018)", "tested_on": "p-IκBα and COX-2", "assay": "LPS-induced acute inflammation, western blot of p-IκBα and COX-2 in lung and liver", "type": "in vivo, mouse", "conditions": "acute treatment, LPS 10 mg/kg", "protocol": "Fig 6 Newly identified NBD mimetics suppress LPS-induced acute inflammation in vivo. (A) The bioavailability property of SR12460, SR12343, SR12454, and SR11481. Concentrations of NBD mimetics were determined in plasma, brain, muscle, spleen, and liver 2 h post a single i.p. injection of 10 mg/kg of drugs; n = 3 per group. (B) Shown is the model to induce LPS-mediated acute inflammation and the treatment regimen with NBD mimetics. Mouse image via http://www.clker.com/clipart-mice-blank.html (copyright-free). (C) NBD mimetics suppressed LPS-induced acute inflammation in liver and lung by down-regulating NF-κB target gene expression. Vehicle, SR12343, SR12460, and 8K-NBD peptide were dosed at 10 mg/kg 30 min prior to the LPS treatment. Acute inflammation was induced by i.p. injection of 10 mg/kg LPS. Lung and liver were collected 2–4 h post injection, and mRNA was extracted for qRT-PCR analysis. (D, E) Western blot analysis was performed to probe for the expression of p-IκBα and COX-2 at protein level in liver and lung tissues. (F) Serum levels of IL-6 were determine by ELISA. n = 3–8 each group. *P < 0.05, **P < 0.01. […] COX-2, cyclooxygenase 2; IL-6, interleukin 6; i.p., intraperitoneal; LPS, lipopolysaccharide; NBD, NEMO-binding domain; n.d., nondetectable; NEMO, NF-κB essential modulator; NF-κB, nuclear factor κB; qRT-PCR, quantitative real-time polymerase chain reaction. […]", "data": [{"smiles": "O=C(CNc1ccc(Cl)cn1)NCCc1cccc(Br)c1", "note": "[SR12343]", "values": [{"measurement": "Phosphorylation of IκBα and levels of COX-2 in lung and liver (western blot)", "value": "reduced"}]}]}
